Test results taken from patent US11109593B2, “Isoxazolin-5-one derivative and herbicide containing same as active ingredient” (HOKKO CHEMICAL INDUSTRY CO., LTD., priority 2017, dated 2021).

Legend:
Type in all cases: in vivo
Amaranthus viridis [1] = experiment: Test Example 3: herbicidal effect test by treatment of dry field farming soil (one day after seeding); conditions: 120 g/10a active ingredient, evaluated 14 days after treatment
Procedure, shortened: (§1)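 Compound emulsions are sprayed on the soil surface one day after sowing (120 g a.i. per 10 ares) before weeds emerge. Effect is expressed as percent dry-weight reduction versus untreated controls 14 days post-treatment.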

southern crabgrass [2] = experiment: as above; conditions: 120 g/10a active ingredient, evaluated 14 days after treatment
Procedure, shortened: as §1

Echinochloa crus-galli [3] = experiment: as above; conditions: 120 g/10a active ingredient, evaluated 14 days after treatment
Procedure, shortened: as §1

Chenopodium album [4] = experiment: as above; conditions: 120 g/10a active ingredient, evaluated 14 days after treatment
Procedure, shortened: as §1

Scirpus juncoides [5] = experiment: Test Example 1: herbicidal effect test by treatment of rice paddy soil (immediately after seeding); conditions: 120 g/10a active ingredient, dry weight vs untreated area, 14 days after treatment
Procedure, shortened: (§2)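 Values are herbicidal rates (%) derived from average plant dry weight in treated versus untreated pots 14 days after treatment, run in duplicate. Treatment was a water-diluted emulsion dropped into flooded paddy soil right after sowing, at 120 g active ingredient per 10 ares.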

Echinochloa crus-galli [6] = experiment: as above; conditions: 120 g/10a active ingredient, dry weight vs untreated area, 14 days after treatment
Procedure, shortened: as §2

[7] = tested on: broad leaf weeds (Lindernia pyxidaria and Monochoria vaginalis); experiment: as above; conditions: 120 g/10a active ingredient, dry weight vs untreated area, 14 days after treatment
Procedure, shortened: as §2

Amaranthus viridis [8] = experiment: Test Example 4: herbicidal effect test by treatment of leave and stem in dry field farming (seven days after seeding); conditions: 120 g/10a active ingredient; emulsion sprayed seven days after seeding; evaluated 14 days after treatment
Procedure, shortened: (§3)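 Duplicate pots were scored 14 days post-spray by dry weight, herbicidal rate = {1 − treated/untreated average dry weight} × 100. The water-diluted emulsion, equivalent to 120 g active ingredient per 10 ares in 100 L, was applied seven days after sowing 20 seeds each into the upper 1 cm of alluvial soil.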

southern crabgrass [9] = experiment: as above; conditions: 120 g/10a active ingredient; emulsion sprayed seven days after seeding; evaluated 14 days after treatment
Procedure, shortened: as §3

Echinochloa crus-galli [10] = experiment: as above; conditions: 120 g/10a active ingredient; emulsion sprayed seven days after seeding; evaluated 14 days after treatment
Procedure, shortened: as §3

Chenopodium album [11] = experiment: as above; conditions: 120 g/10a active ingredient; emulsion sprayed seven days after seeding; evaluated 14 days after treatment
Procedure, shortened: as §3

Scirpus juncoides [12] = experiment: Test Example 2: herbicidal effect test by treatment during growing period in paddy rice cultivation (seven days after seeding); conditions: 120 g/10a active ingredient, assessed 14 days after treatment, dry weight vs untreated area
Procedure, shortened: (§4)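 Greenhouse flooded-pot test, seeds sown in puddled paddy soil; emulsion applied into water 7 d after seeding, 120 g a.i./10 a. Dry-weight-based herbicidal rate at 14 d, n=2.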

Echinochloa crus-galli [13] = experiment: as above; conditions: 120 g/10a active ingredient, assessed 14 days after treatment, dry weight vs untreated area
Procedure, shortened: as §4

[14] = tested on: broad leaf weeds (Lindernia pyxidaria and Monochoria vaginalis); experiment: as above; conditions: 120 g/10a active ingredient, assessed 14 days after treatment, dry weight vs untreated area
Procedure, shortened: as §4

| Compound | herbicidal rate, Amaranthus viridis (Amaranthus viridis [1]) [%] | herbicidal rate, southern crabgrass (southern crabgrass [2]) [%] | herbicidal rate, Echinochloa crus-galli (Echinochloa crus-galli [3]) [%] | herbicidal rate, Chenopodium album (Chenopodium album [4]) [%] | Herbicidal rate (%) Scirpus juncoides (Scirpus juncoides [5]) [%] | Herbicidal rate (%) Echinochloa crus-galli (Echinochloa crus-galli [6]) [%] | Herbicidal rate (%) Lindernia pyxidaria [7] [%] | Herbicidal rate (%) Monochoria vaginalis [7] [%] | herbicidal effect (herbicidal rate), Amaranthus viridis (Amaranthus viridis [8]) [%] | herbicidal effect (herbicidal rate), southern crabgrass (southern crabgrass [9]) [%] | herbicidal effect (herbicidal rate), Echinochloa crus-galli (Echinochloa crus-galli [10]) [%] | herbicidal effect (herbicidal rate), Chenopodium album (Chenopodium album [11]) [%] | Herbicidal rate (%) Scirpus juncoides (Scirpus juncoides [12]) [%] | Herbicidal rate (%) Echinochloa crus-galli (Echinochloa crus-galli [13]) [%] | Herbicidal rate (%) Lindernia pyxidaria [14] [%] | Herbicidal rate (%) Monochoria vaginalis [14] [%] |
| --- | --- | --- | --- | --- | --- | --- | --- | --- | --- | --- | --- | --- | --- | --- | --- | --- |
| CCCC(C)n1oc(=O)c(Cc2ccccc2N(S(=O)(=O)C(F)(F)F)S(=O)(=O)C(F)(F)F)c1C (stereo not shown) [Compound 1-970] | 60 | 90 | 90 | 40 | 100 | 100 | 100 | 100 | 60 | 70 | 90 | 40 | 90 | 100 | 70 | 90 |
| Cc1c(Cc2ccccc2NS(=O)(=O)C(F)(F)F)c(=O)on1C(c1ccccc1)C(C)C (stereo not shown) [Compound 1-213] | 100 | 100 | 100 | 100 | 90 | 100 | 90 | 90 | 40 | 90 | 90 | 50 | 80 | 90 | 70 | 80 |
| COCC(C)n1oc(=O)c(Cc2ccccc2N(C(=O)C(C)C)S(=O)(=O)C(F)(F)F)c1C (stereo not shown) [Compound 1-335] | 90 | 90 | 90 | 90 | 90 | 90 | 90 | 90 | 40 | 90 | 90 | 40 | 90 | 90 | 90 | 90 |
| CCOC(=O)N(c1ccccc1Cc1c(C)n(CC(C)CC)oc1=O)S(=O)(=O)C(F)(F)F (stereo not shown) [Compound 1-611] | 40 | 70 | 70 | 40 | 90 | 100 | 90 | 80 | 60 | 70 | 80 | 50 | 90 | 100 | 70 | 80 |
| CCCCC(C)n1oc(=O)c(Cc2ccccc2N(S(=O)(=O)C(F)(F)F)S(=O)(=O)C(F)(F)F)c1C (stereo not shown) [Compound 1-977] | 70 | 80 | 80 | 50 | 90 | 100 | 100 | 100 | 60 | 80 | 90 | 80 | 90 | 100 | 80 | 90 |
| CCC(C)n1oc(=O)c(Cc2ccccc2N(C(=O)OCC(C)C)S(=O)(=O)C(F)(F)F)c1C (stereo not shown) [Compound 1-669] | 90 | 90 | 90 | 90 | 90 | 90 | 90 | 90 | 40 | 90 | 90 | 40 | 90 | 90 | 90 | 90 |
| Cc1c(Cc2ccccc2NS(=O)(=O)C(F)(F)F)c(=O)on1CC1CCCO1 (stereo not shown) [Compound 1-230] | 60 | 100 | 100 | 60 | 90 | 100 | 100 | 80 | 40 | 80 | 80 | 40 | 90 | 90 | 70 | 90 |
| Cc1c(Cc2ccccc2NS(=O)(=O)C(F)(F)F)c(=O)on1C [Compound 1-97] | 0 | 90 | 90 | 0 | 100 | 100 | 100 | 100 | 40 | 90 | 90 | 40 | 90 | 90 | 80 | 60 |
| CCC(C)CCn1oc(=O)c(Cc2ccccc2NS(=O)(=O)C(F)(F)F)c1C (stereo not shown) [Compound 1-124] | 40 | 80 | 100 | 50 | 90 | 100 | 90 | 90 | 40 | 60 | 70 | 40 | 80 | 90 | 60 | 70 |
| CCS(=O)(=O)N(c1ccccc1Cc1c(C)n(C(C)COC)oc1=O)S(=O)(=O)C(F)(F)F (stereo not shown) [Compound 1-915] | 90 | 90 | 90 | 90 | 90 | 90 | 90 | 90 | 40 | 90 | 90 | 40 | 90 | 90 | 90 | 90 |
